The values below come from patent US6080396A, “Anthracycline compound derivative and pharmaceutical preparation containing the same” (Japan Science and Technology Corporation, priority 1995, dated 2000).

Data set [1] concerns mouse Colon 26 adenocarcinoma. Put plainly: Antitumor activity on mouse Colon 26 adenocarcinoma (Application Example 1). Type of data set: in vivo. The note with it: for Tumor-disappeared mice: i.v., every 4th day, three times. As to the method:
(§1) When the volume of the tumor reached around 100 mm^3, the block copolymer-drug complex pharmaceutical preparation synthesized in Example 3, 4 or 5 or adriamycin hydrochloride was intravenously administered once a day every 4th day in total of three times (indicated by arrows in the drawings) to examine their antitumor effects. […] Each dose was determined as the amount of adriamycin of the peak 1 of the HPLC chromatogram. The antitumor effects of each drug were estimated based on the tumor growth curve, the number of mice in which the tumor disappeared and the chemotherapeutic index. The results are shown in Tables 1 and 2 and FIGS. 16 and 17.

Data set [2] is described as follows: LD50 for comparison of chemotherapeutic index (Table 2). The note with it: mouse, in vivo, iv. How it is done:
as §1

Data set [3] in a line: Drug concentration in blood plasma by radioactivity (Application Example 2). The note with it: for % of dose/ml (blood plasma): i.v., total of adriamycin and adriamycin dimer, 14C. How it is done: Colon 26 adenocarcinoma cells were transplanted subcutaneously in the subaxillary region of each CDF1 female mouse, to which the block copolymer-drug complex pharmaceutical preparation prepared in Example 6 or 7 or ^14 C-labeled adriamycin hydrochloride was intravenously administered 12 days after transplanting. Each drug was used by diluting it in physiological saline prior to its use. After 15 minutes and 1, 4, 24 and 48 hours of the administration, blood samples were collected and various organs were excised. The drug concentrations in the blood plasma and each internal organ were determined by measuring radioactivity thereof using a liquid scintillation counter. In this test, both adriamycin and adriamycin dimer are labeled with ^14 C.

Data set [4] can be described thus: Drug concentration in tumor by radioactivity (Application Example 2). The note with it: mouse, iv, i.v., total of adriamycin and adriamycin dimer, 14C, read-out: % of dose/g (tumor). In kind it is in vivo, CDF1 female mouse.
A short description of data set [5]: Drug concentration in heart by radioactivity (Application Example 2). Type of data set: in vivo, CDF1 female mouse. To be noted: mouse, iv, i.v., total of adriamycin and adriamycin dimer, 14C, read-out: % of dose/g (heart).
Data set [6] has as its system mouse Colon 26 adenocarcinoma. Put plainly: Antitumor activity on mouse Colon 26 adenocarcinoma (Application Example 3). Type of data set: in vivo. To be noted: i.v., every 4th day, three times. How it is done:
In the case of the pharmaceutical preparation of Example 8, its effect obtained from the only first administration was also examined. […] Each dose was determined as the amount of adriamycin of the peak 1 of the HPLC chromatogram. The antitumor effects of each drug were estimated based on the tumor growth curve and the number of mice in which the tumor disappeared. The results are shown in Table 6 and FIGS. 25, 26 and 27.

Where a name gives a salt, the structure may show the parent alone.

In general, LD50 refers to the dose expected to kill half of the subjects tested. Lower therefore signals a more toxic substance. As for `COc1cccc2c1C(=O)c1c(O)c3c(c(O)c1C2=O)C[C@@](O)(C(=O)CO)C[C@@H]3O[C@H]1C[C@H](N)[C@H](O)[C@H](C)O1` [Adriamycin hydrochloride, adriamycin hydrochloride], the Tumor-disappeared mice in data set [1] (5 mg/kg) was 0/5; in data set [1] (10 mg/kg) it was 2/5; in data set [6] (5 mg/kg) it was 0/5; in data set [6] (10 mg/kg) it was 2/5. Moreover, the “Min T/C42 (minimum dose when T/C (%) becomes 42% or less on the 14th day after the initial administration)” value in data set [1] (14th day after initial administration) amounted to 5.95. For the same compound, the “C. index (chemotherapeutic index: LD50/(Min T/C42))” value in data set [1] (LD50 /(Min T/C42)) is listed as 2.52. In data set [2], this compound gave an LD50 of 15 mg/kg. In addition, the “% of dose/ml (blood plasma)” value is 0.47 % of dose/ml in data set [3] (15 minutes); 0.29 % of dose/ml in data set [3] (1 hour); 0.36 % of dose/ml in data set [3] (4 hours); 0.10 % of dose/ml in data set [3] (24 hours); 0.07 % of dose/ml in data set [3] (48 hours). In data set [3] (mouse, in vivo), the “drug retention in blood plasma” value is “quickly disappeared from blood plasma”. Moreover, the tissue uptake at 0.25 h in data set [4] (15 minutes) stood at 2.3 %ID/g; in data set [5] (15 minutes), 10.5 %ID/g. The tissue uptake at 1 h in data set [4] (1 hour) was determined as 2.4 %ID/g; in data set [5] (1 hour) it was 7 %ID/g. Also, the results for the tissue uptake at 4 h in data set [4] (4 hours) and in data set [5] (4 hours) were 1.7 %ID/g and 4.6 %ID/g, respectively. The tissue uptake at 24 h in data set [4] (24 hours) worked out at 1.3 %ID/g; in data set [5] (24 hours), 1.1 %ID/g. Further, the tissue uptake at 48 h in data set [4] (48 hours) amounted to 1 %ID/g; in data set [5] (48 hours), 0.5 %ID/g.
